Laboratory results published in patent US20220241227A1, “COMPOSITIONS COMPRISING HDAC INHIBITORS AND RETINOIDS” (The Regents of The University of California, priority 2019, published 2022).
Where two headings read alike, the source gives them in different places.

How the values were obtained:
[1] = test system: miR-22; experiment: miR-22 induction in HCT116 cells; format: cell-based; conditions: RA 10 μM, SAHA 5 μM, butyrate 5 mM, propionate 10 mM, valerate 10 mM
Excerpt: Mean±SD, *p<0.05; **p<0.01; ***p<0.0001 vs. DMSO control, #p<0.05 vs. single agent treatment.

[2] = test system: Swiss mice; conditions: oral; cited from earlier work
[3] = test system: miR-22; conditions: published data, cells not given; cited from earlier work
[4] = test system: HDAC1, HDAC4, and SIRT1; conditions: liver cancer Huh7 and colon cancer HCT116 cells, published data; cited from earlier work
[5] = test system: colon tumors in xenograft models; conditions: combination: RA 0.025 mg/g and butyrate 1.2 mg/g, intraperitoneal, 5 times/week, 2 weeks; cited from earlier work
[6] = test system: RARβ; experiment: RARβ mRNA and protein levels in HCT116 cells; format: cell-based; conditions: 48 hrs, RA 10 μM, butyrate 5 mM, SAHA 5 μM

| Compound | miR-22 induction [1] | miR-22 induction [3] | further results |
| --- | --- | --- | --- |
| CC1=C(/C=C/C(C)=C/C=C/C(C)=C/C(=O)O)C(C)(C)CCC1 [RA, all-trans retinoic acid] | induced |  | LD50 [2]: 1.1 mg/g |
| O=C(CCCCCCC(=O)Nc1ccccc1)NO [SAHA, suberanilohydroxamic acid] | induced | induces miR-22 |  |
| CCCCC(=O)O [valerate] | induced | induce miR-22 |  |
| miR-22: tumor suppressor microRNA, SEQ ID NO:1 (AAGCUGCCAGUUGAAGAACUGU; listed as RNA, chemistry not fully specified; listed as Homo sapiens) |  |  | HDAC1, HDAC4, and SIRT1 levels [4]: reduced; treatment of colon tumors in xenograft models [5]: effective in treating colon tumors |
| CCC(=O)O [propionate] | induced | induce miR-22 |  |
| O=CO [formate] | unable to induce miR-22 |  |  |
| EGF: promotes growth and does not has HDAC inhibitory effect (NSDSECPLSHDGYCLHDGVCMYIEALDKYACNCVVGYIGERCQYRDLKWWELR; Epidermal growth factor; UniProt P01133 971-1023, looked up) |  |  | RARβ expression (mRNA and protein) [6]: did not induce RARβ |
| CC(=O)O [acetate] | unable to induce miR-22 |  |  |
